# Data from ChEMBL document CHEMBL3785073, “Antiviral Indolosesquiterpenoid Xiamycins C-E from a Halophilic Actinomycete” (J Nat Prod, 2016).
# Calls of active or inactive are those of the source. The rule behind the calls is not given here.
# Key:
# [1] = test system: Porcine epidemic diarrhea virus; test: Antiviral activity against PEDV infected in African green monkey Vero cells assessed as suppression of GP2 spike protein expression at 5 uM after 24 hrs by Western blot analysis; type: functional, cell-based
# [2] = test system: Porcine epidemic diarrhea virus; test: Antiviral activity against PEDV infected in African green monkey Vero cells assessed as reduction in virus-induced cytopathic effect after 72 hrs by MTT assay; type: functional, cell-based
# [3] = Selectivity index, ratio of CC50 for African green monkey Vero cells to EC50 for PEDV infected in African green monkey Vero cells
# [4] = Cytotoxicity against African green monkey Vero cells after 48 hrs by MTT assay; type: cell-based; details: chlorocebus sabaeus
# [5] = test system: Porcine epidemic diarrhea virus; test: Antiviral activity against PEDV infected in African green monkey Vero cells assessed as suppression of GP2 spike protein mRNA level after 24 hrs by RT-PCR analysis; type: functional, cell-based
# [6] = test system: Porcine epidemic diarrhea virus; test: Antiviral activity against PEDV infected in African green monkey Vero cells assessed as suppression of GP6 neucleocapsid protein expression at 10 uM after 24 hrs by FITC-based immunofluorescence assay; type: functional, cell-based
# [7] = test system: Porcine epidemic diarrhea virus; test: Antiviral activity against PEDV infected in African green monkey Vero cells assessed as suppression of GP6 neucleocapsid protein expression after 24 hrs by FITC-based immunofluorescence assay; type: functional, cell-based
# [8] = test system: Porcine epidemic diarrhea virus; test: Antiviral activity against PEDV infected in African green monkey Vero cells assessed as suppression of GP2 spike protein expression after 24 hrs by Western blot analysis; type: functional, cell-based
# [9] = test system: Porcine epidemic diarrhea virus; test: Antiviral activity against PEDV infected in African green monkey Vero cells assessed as suppression of GP5 neucleocapsid protein mRNA level after 24 hrs by RT-PCR analysis; type: functional, cell-based
# [10] = test system: Porcine epidemic diarrhea virus; test: Antiviral activity against PEDV infected in African green monkey Vero cells assessed as suppression of GP6 neucleocapsid protein expression after 24 hrs by Western blot analysis; type: functional, cell-based
# [11] = test system: Porcine epidemic diarrhea virus; test: Antiviral activity against PEDV infected in African green monkey Vero cells assessed as suppression of GP6 neucleocapsid protein mRNA level after 24 hrs by RT-PCR analysis; type: functional, cell-based
Compound,Activity [1],EC50 [2] [µM],Ratio CC50/EC50 [3],CC50 at 48 h [4] [µM],Activity [5],Activity [6],Activity [7],Activity [8],Activity [9],Activity [10],Activity [11]
COC(=O)[C@]1(C)[C@@H](O)CC[C@]2(C)c3cc4c(cc3C(=O)C[C@@H]12)[nH]c1ccccc14,Active,2.89,34.63,98.7,Active,,,,,,
O=c1cnn([C@@H]2O[C@H](CO)[C@@H](O)[C@H]2O)c(=O)[nH]1 [6-AZAURIDINE],Active,4.48,12.7,57.3,,Active,,,,,
C[C@@]1(C(=O)O)[C@@H](O)CC[C@]2(C)c3cc4c([nH]c5ccccc54)c(Cl)c3CC[C@@H]12,,12.8,12.89,162,,,,,,,
COC(=O)[C@]1(C)[C@@H](O)CC[C@]2(C)c3cc4c(cc3[C@@H](O)C[C@@H]12)[nH]c1ccccc14,Dose-dependent effect,0.93,60.31,56,Dose-dependent effect,,Dose-dependent effect,Dose-dependent effect,Dose-dependent effect,Dose-dependent effect,Dose-dependent effect
C[C@@]1(C(=O)O)[C@@H](O)CC[C@]2(C)c3cc4c(cc3CC[C@@H]12)[nH]c1ccccc14 [XIAMYCIN],,20.1,7,138,,,,,,,
C[C@@]1(C(=O)O)[C@@H](O)CC[C@]2(C)c3cc4c(cc3[C@@H](O)C[C@@H]12)[nH]c1ccccc14,,11.5,6.75,76.9,,,,,,,
COC(=O)[C@]1(C)[C@@H](O)CC[C@]2(C)c3cc4c(cc3CC[C@@H]12)[nH]c1ccccc14,,5.69,18.09,103,,,,,,,
